Test results reported in US20250346584A1, “NOVEL KAPPA OPIOID LIGANDS” (The Scripps Research Institute, priority 2012, published 2025).

These compounds were tested against kappa opioid receptor (OPRK1) (Homo sapiens (Human), UniProt P41145) (assay: OPRK1 antagonist assay (b-arrestin-2-TEV / b-lactamase reporter cell line, EC80 U-50488 challenge)). Settings: % inhibition at the concentration given.
Assay type: cell-based

Sequence of kappa opioid receptor (OPRK1) (P41145 whole entry): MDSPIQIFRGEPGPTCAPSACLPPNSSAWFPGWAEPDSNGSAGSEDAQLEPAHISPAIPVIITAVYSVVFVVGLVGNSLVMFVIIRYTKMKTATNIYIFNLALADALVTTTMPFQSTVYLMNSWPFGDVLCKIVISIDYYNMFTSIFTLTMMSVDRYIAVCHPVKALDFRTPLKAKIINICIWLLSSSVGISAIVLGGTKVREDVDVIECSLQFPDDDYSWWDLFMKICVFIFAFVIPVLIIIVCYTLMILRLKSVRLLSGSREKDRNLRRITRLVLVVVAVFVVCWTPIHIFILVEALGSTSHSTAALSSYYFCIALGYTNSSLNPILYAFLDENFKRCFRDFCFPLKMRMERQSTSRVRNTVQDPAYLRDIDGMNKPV

SMILES	% inhib if other than 50% [%]
O=C(O)c1cc(Br)cnc1N1CCC(NC2CCCCC2)CC1 [compound 34]	85
CCOC(=O)c1c(Cl)cc(C)nc1N1CCC(N[C@@H]2CCCC[C@H]2O)CC1 [compound 2]	65

Same assay, conditions: read-out: IC50 nM (% inhib if other than 50%); antagonist mode vs EC80 U-50488; NA = not active at concentrations up to 10 μM

SMILES	IC50 [nM]
Cc1ccc2nc(N3CCC(NC4CCC[C@@H]4O)CC3)c(-c3noc(C)n3)cc2c1 (stereo partly shown) [compound 440]	70
c1cnc(-c2cc3ccccc3nc2N2CCC(NC3CCOCC3)CC2)nc1 [compound 286]	298
Cc1ccc2nc(N3CCC(NC4CCCCC4)CC3)c(-c3nc(C)no3)cc2c1 [compound 219]	3.5
COC(=O)c1cccnc1N1CCC(NC2CCOCC2)C(O)C1 (stereo not shown) [compound 56]	7000
Cc1nc(-c2cc3cc(C)c(F)cc3nc2N2CCC(NCC(C)C)CC2)no1 [compound 513]	27
COC(=O)c1cc(I)cnc1N1CCC(NC2CCCCC2)C(OC)C1 (stereo not shown) [compound 123]	11
Cc1noc(-c2cc3c(F)cccc3nc2N2CCC(NCC(C)C)CC2)n1 [compound 526]	49
COC1CN(c2ncc(Br)cc2-c2nc(C)no2)CCC1NC1CCCCC1 (stereo not shown) [compound 143]	100
Cc1noc(-c2cc(C(F)(F)F)cnc2N2CCC(NC3CCCCC3)C(CO)C2)n1 (stereo not shown) [compound 187]	341
O=C(O)c1cc(Br)cnc1N1CCC(NC2CCCCC2)CC1 [compound 34]	5200
CCOC(=O)c1c(Cl)cc(C)nc1N1CCC(N[C@@H]2CCCC[C@H]2O)CC1 [compound 2]	4500
CO[C@H]1CN(c2ncc(C)cc2-c2cnc(C)cn2)CC[C@H]1NC1CCCCC1 [compound 472]	105
COC1CN(c2nc3ccc(C)cc3cc2-c2noc(C)n2)CCC1NCC(C)C (stereo not shown) [compound 377]	69
Cc1noc(-c2cc3ccc(Cl)cc3nc2N2CCC(NC3CCCCC3)CC2)n1 [compound 536]	19
Cc1cnc(N2CCC(NC3CCCCC3)C(CO)C2)c(-c2nc(C)no2)c1 (stereo not shown) [compound 152]	30
COC(=O)c1cc(Cl)cnc1N1CCC(NC2CCCCC2)C(CO)C1 (stereo not shown) [compound 70]	110
Cc1cnc(N2CCC(NC3CCCCC3)C(CO)C2)c(C=O)c1 (stereo not shown) [compound 216]	4500
COC(=O)c1cc(Br)cnc1N1CCC(NC2CC3CCC2C3)CC1 (stereo not shown) [compound 28]	387
COC(=O)c1cc(Br)cnc1N1CCC(NC2CC2)CC1 [compound 78]	1200
CC(C)OC(=O)c1cc(Br)cnc1N1CC[C@@H](NC2CCCCC2)[C@H](O)C1 [compound 135]	1630
Cc1nc(-c2cc3ccc(F)c(C)c3nc2N2CCC(NC3CCOCC3)CC2)no1 [compound 511]	227
COC(=O)c1cc(C)c(C)nc1N1CC[C@@H](NC2CCCCC2)[C@H](O)C1 [compound 161]	157

SMILES	IC50 [nM]
CCOC(=O)c1cc(Br)cnc1N1CCC(NC2CCCC[C@@H]2O)CC1 (stereo partly shown) [compound 8]	579
COC1CN(c2nc3ccc(C)cc3cc2-c2nc(C)no2)CCC1NC1CCCCC1F (stereo not shown) [compound 249]	9
COC1CN(c2nc3ccccc3nc2-c2nc(C)no2)CCC1NC1CCCCC1 (stereo not shown) [compound 190]	57
COC(=O)c1cc(Br)cnc1N1CCC(NC2CCCCCC2)C(C(=O)OC)C1 (stereo not shown) [compound 115]	1700
CO[C@H]1CN(c2nc3ccc(C)cc3cc2-c2nc(C)no2)CC[C@H]1NC1CCC(F)(F)CC1 [compound 521]	278
COC(=O)c1cc(Br)cnc1N1CCC(NC2CCCC(O)C2)CC1 (stereo not shown) [compound 10]	652
CCOC(=O)c1cc(C)c(C)nc1N1CC[C@@H](NC2CCCCC2)[C@H](O)C1 [compound 153]	191
Cc1ccc2nc(N3CCC(NC4CCCCC4O)CC3)c(-c3noc(C)n3)cc2c1 (stereo not shown) [compound 450]	11
Cc1nc(-c2cc3ccc(F)c(C)c3nc2N2CCC(NCC(C)C)CC2)no1 [compound 505]	126
CCOC(=O)c1cc2cc(C)ccc2nc1N1CCC(NC2CCCCC2)C(CO)C1 (stereo not shown) [compound 288]	15
CCc1noc(-c2cc(C)cnc2N2CC[C@@H](NC3CCCCC3)[C@H](O)C2)n1 [compound 168]	7000
Cc1noc(-c2cc3ccc(F)c(C)c3nc2N2CCC(NC3CCOCC3)CC2)n1 [compound 493]	132
CN(C)C(=O)c1cc(Br)cnc1N1CC[C@@H](NC2CCCCC2)[C@H](O)C1 [compound 138]	3200
CO[C@H]1CN(c2nc3ccc(C)cc3cc2C(C)=O)CC[C@H]1NC1CCCCC1 [compound 483]	315
COC1CN(c2nc(C)c(C)cc2-c2nc(C)no2)CCC1NC1CCOCC1 (stereo not shown) [compound 321]	105
Cc1noc(-c2cc3ccccc3nc2N2CCC(NC3CCOCC3)CC2)n1 [compound 232]	8
CCc1noc(-c2cc3cc(C)ccc3nc2N2CCC(NC3CCCC3)C(OC)C2)n1 (stereo not shown) [compound 310]	4
COC(=O)c1cc(I)cnc1N1CCC(NC2CCCC2)C(O)C1 (stereo not shown) [compound 46]	25
COC(=O)c1cc(Br)cnc1N1CCC(OC2CCCC2O)CC1 (stereo not shown) [C51]	> 20000
COC(=O)c1cc2ccccc2nc1N1CCC(NC2CCCCC2)C(OC)C1 (stereo not shown) [compound 158]	431
CC(=O)c1cc(Br)cnc1N1CCC(NC2CCCCC2)C(CO)C1 (stereo not shown) [compound 144]	4800
COC1CN(c2nc3ccccc3cc2-c2nc(C)no2)CCC1NC1CCCCCC1 (stereo not shown) [compound 311]	1

SMILES	IC50 [nM]
Cc1cnc(N2CCC(NC3CCOCC3)CC2)c(-c2cnc(C)cn2)c1 [compound 473]	3210
Cc1noc(-c2cc3ccccc3nc2N2CCC(NC3CCCC3)C(CO)C2)n1 (stereo not shown) [compound 205]	17
COC(=O)c1cc(Cl)cnc1N1CCC(NC2CCCCC2)CC1 [compound 40]	159
COC1CN(c2ncc(C)cc2-c2nc(C)no2)CCC1NC1CCOCC1 (stereo not shown) [compound 320]	170
COC1CN(c2nc(C)c(C)cc2-c2nc(C)no2)CCC1NCC(C)C (stereo not shown) [compound 378]	256
Cc1cnc(N2CCC(NC3CCCCC3)CC2)c(-c2ccc(C)o2)c1 [compound 499]	116
Cc1cc(-c2nc(C)no2)c(N2CCC(NC3CCOCC3)CC2)nn1 [compound 272]	8700
CCc1noc(-c2cc3cc(C)ccc3nc2N2CCC(NC3CCCCCC3)C(OC)C2)n1 (stereo not shown) [compound 313]	1.5
CCOC(=O)c1cc(C(=O)OC)c(C)nc1N1CCC(NC2CCCCC2)C1 (stereo not shown) [compound 104]	2200
Cc1nc(-c2cc3cc(C)c(F)cc3nc2N2CCC(NC3CCCCC3)CC2)no1 [compound 495]	13
O=Cc1cc(Br)cnc1N1CC[C@@H](NC2CCCCC2)[C@H](O)C1 [compound 129]	799
Cc1noc(-c2cc3cc(C)c(C)cc3nc2N2CCC(NC3CCCCC3)C(CO)C2)n1 (stereo not shown) [compound 307]	41
CCOC(=O)c1cc(Br)cnc1N1CC[C@@H](NC2CCCCC2)[C@H](O)C1 [compound 134]	23
COC(=O)c1cc(Br)cnc1N1CCC(NC(=O)C2CCCCC2)C(O)C1 (stereo not shown) [C54]	> 20000
COC1CN(c2nc(C)c(C)nc2-c2nc(C)no2)CCC1NC1CCCCC1 (stereo not shown) [compound 390]	1920
CCc1noc(-c2cc(C)cnc2N2CCC(NC3CCCCC3)C(CO)C2)n1 (stereo not shown) [compound 171]	1100
CCOC(=O)c1cc(C#N)c(C)nc1N1CCC(NC2CCCCC2)C(CO)C1 (stereo not shown) [C52]	> 20000
CCO/N=C/c1cc(Br)cnc1N1CCC(NC2CCCCC2)CC1 [compound 101]	4000
COC(=O)c1cc(Br)cnc1N1CCC(NC2CCCCCC2)C(CO)C1 (stereo not shown) [compound 74]	58
COC(=O)c1cc(I)cnc1N1CCC(NC2CCCCC2)C1 (stereo not shown) [compound 35]	88
Cc1noc(-c2cc3ccc(F)cc3nc2N2CCC(NC3CCOCC3)CC2)n1 [compound 528]	23
CO[C@H]1CN(c2nc3cc(F)ccc3cc2-c2nc(C)no2)CC[C@H]1NCC(C)C [compound 538]	970

SMILES	IC50 [nM]
Cc1noc(-c2cc3ccccc3nc2N2CCC(NC3CCCCC3)C(F)C2)n1 (stereo not shown) [compound 204]	52
Cc1ccc2cc(-c3nc(C)no3)c(N3CCC(NC4CCCCC4O)CC3)nc2c1 (stereo not shown) [compound 256]	631
COC1CN(c2ncc(C)cc2-c2cn(C)nn2)CCC1NC1CCCCC1 (stereo not shown) [compound 392]	2960
Cc1ccc2nc(N3CCC(NC[C@@H](C)O)CC3)c(-c3nc(C)no3)cc2c1 [compound 421]	48
CC(=O)c1cc(Br)cnc1N1CCC(NC2CCCCC2)C(O)C1 (stereo not shown) [compound 99]	4500
Cc1ccc2nc(N3CCC(NC[C@H](C)O)CC3)c(-c3nc(C)no3)cc2c1 [compound 422]	106
CO[C@@H]1CN(c2nc3c(C)c(F)ccc3cc2-c2nc(C)no2)CC[C@@H]1NC1CCCCC1 [compound 492]	74
CCC1(CO)CN(c2nc3ccccc3cc2-c2nc(C)no2)CCC1NC1CCCCC1 (stereo not shown) [compound 208]	76
COC1CN(c2nc3c(C)cccc3cc2-c2nc(C)no2)CCC1NC1CCCCC1 (stereo not shown) [compound 276]	18
Cc1ccc2nc(N3CCC(NC4CCCCC4)C(CO)C3)c(-c3nnc(C)o3)cc2c1 (stereo not shown) [compound 301]	38
COC1CN(c2nc3ccc(C)cc3cc2-c2nc(C3CC3)no2)CCC1NC1CCCCC1 (stereo not shown) [compound 303]	0.5
Cc1noc(-c2cc3c(nc2N2CC[C@@H](NC4CCCCC4)[C@H](O)C2)CCC3)n1 [compound 207]	276
COC(=O)c1cc(Br)cnc1N1CC2C(C1)C2NC1CCCCC1 (stereo not shown) [C27]	21000
COC(=O)c1cc(Br)cnc1N1CCC(NC2CCCCC2)C(OC)C1 (stereo not shown) [compound 122]	125
Cc1cnc(N2CCC(NC3CCOCC3)C(CO)C2)c(-c2nc(C)no2)c1 (stereo not shown) [compound 195]	700
CO[C@H]1CN(c2nc3ccc(F)cc3cc2-c2nc(C)no2)CC[C@H]1NCC(C)C [compound 530]	5100
COC(=O)c1cc(N)cnc1N1CCC(NC2CCCCC2)CC1 [compound 85]	1800
COC(=O)c1cc(Br)cnc1N1CCC(NC2CCCCC2)C(C(=O)OC)C1 (stereo not shown) [compound 113]	2000
COC(=O)c1cc(Br)cnc1N1CCC(NC2CCCCC2OC)C(CO)C1 (stereo not shown) [compound 82]	127
Cc1noc(-c2cc3cccc(C)c3nc2N2CCC(NC3CCCCC3)C(CO)C2)n1 (stereo not shown) [compound 277]	9
